Experimental data as given in patent US8173654B2, “Triazolopyridazine compounds” (Janssen Pharmaceutica N.V., priority 2005, dated 2012).

Molecular target: c-Met (Homo sapiens, UniProt P08581)
Assay: Delfia autophosphorylation kinase assay on the c-Met
Assay type: biochemical
Parameters: The purified His6 tagged cytoplasmic domain of c-Met was diluted to a concentration of 500 ng/ml; host or cells: Sf9 insect cells (baculovirus, pFastBacHTa)
Details: His6 tagged cytoplasmic domain of c-Met, 1 μM ATP; read-out: cMet Delfia autophos IC-50
Procedure, shortened: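 Time-resolved fluorescence tracked autophosphorylation of the His6-tagged c-Met cytoplasmic domain, dispensed at 500 ng/ml onto nickel-chelate plates. Reaction buffer held 1 μM ATP, 10 mM MgCl2, vanadate and DTT at pH 8.0, for 1 h at room temperature.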

c-Met, sequence (P08581 956-1390 limits assumed): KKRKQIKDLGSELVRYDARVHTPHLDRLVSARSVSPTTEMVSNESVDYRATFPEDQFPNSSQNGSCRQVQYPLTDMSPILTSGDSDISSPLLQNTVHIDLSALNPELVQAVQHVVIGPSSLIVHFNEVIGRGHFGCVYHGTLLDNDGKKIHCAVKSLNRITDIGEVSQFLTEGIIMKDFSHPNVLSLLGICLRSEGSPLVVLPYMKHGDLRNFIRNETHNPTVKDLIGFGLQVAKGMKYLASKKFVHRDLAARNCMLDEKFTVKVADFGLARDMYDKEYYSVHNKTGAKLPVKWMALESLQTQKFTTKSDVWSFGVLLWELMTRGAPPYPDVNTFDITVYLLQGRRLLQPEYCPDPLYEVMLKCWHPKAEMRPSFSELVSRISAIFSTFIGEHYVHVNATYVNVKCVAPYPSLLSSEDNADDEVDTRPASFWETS

IC50: 1 nM
SMILES: Cn1cc(-c2ccc3nnc(C(F)(F)c4ccc5ncccc5c4)n3n2)cn1 [Example 61, 6-{Difluoro-[6-(1-methyl-1H-pyrazol-4-yl)-[1,2,4]triazolo[4,3-b]pyridazin-3-yl]-methyl}-quinoline]
